From article PMC3290551, “Core Site-Moiety Maps Reveal Inhibitors and Binding Mechanisms of Orthologous Proteins by Screening Compound Libraries” (PLoS ONE, 2012)
Several values for one entry are separate records, joined by “and”; a condition that tells them apart may be missing. Equal values may be shown once. Read-outs that look alike come from different tables or passages of the source.

Columns and labels:
Assay type in all cases: biochemical
[1] = target: T1, H. pylori shikimate kinase (HpSK) (Helicobacter pylori, UniProt P56073); assay: Shikimate kinase coupled enzyme inhibition assay (HpSK); conditions: for IC50: 1.6 mM shikimic acid, 2.5 mM ATP, 25°C, pH 7.5; for Inhibitory effect against shikimate kinase (in words): HpSK
T1 construct: made in house; host or cells: Escherichia coli (stated for the mutants, which followed the wild-type procedure)

[2] = target: T2, M. tuberculosis shikimate kinase (MtSK) (Mycobacterium tuberculosis, UniProt P9WPY3); assay: Shikimate kinase coupled enzyme inhibition assay (MtSK); conditions: for IC50: SK species: Mt, 1.6 mM shikimic acid, 2.5 mM ATP, 25°C, pH 7.5; for Inhibitory effect against shikimate kinase (in words): MtSK
T2 construct: His6 (N); made in house; host or cells: E. coli BL-21 (DE3)

[3] = target: T1, H. pylori shikimate kinase (HpSK); assay: Analysis of inhibitor kinetics / inhibitor modality (HpSK); conditions: for Inhibitor modality with respect to ATP / Inhibitor modality with respect to shikimate: HpSK; for Ki: SK species: Hp
Protocol: (§1) Shikimate kinase activity was determined by coupling the release of ADP from the SK-catalyzed reaction to the oxidation of NADH using pyruvate kinase (EC 2.7.1.40) and lactate dehydrogenase (EC 1.1.1.27) as coupling enzymes. Shikimate-dependent oxidation of NADH was measured by monitoring the decrease in A340 (ε = 6,200 M^−1 cm^−1). The assay was carried out at 25°C in a mixture of 100 mM Tris-HCl buffer, pH 7.5, 50 mM KCl, 5 mM MgCl2, 1.6 mM shikimic acid, 2.5 mM ATP, 1 mM phosphoenolpyruvate (PEP), 0.1 mM NADH, 2.5 units of pyruvate kinase per ml, and 2.7 units of lactate dehydrogenase per ml. All assays were conducted in a 96-well microplate and analyzed with a spectrophotometer (FLUOstar OPTIMA, BMG LABTECH).
(§2) After the preliminary screening, the inhibitor modality was determined by measuring the effects of inhibitor concentrations on the enzymatic activity as a function of substrate concentration. In the inhibition experiment in which the ATP concentration was fixed at 2.5 mM, shikimate was a varied substrate (0.06, 0.12, 0.24, 0.48, and 0.96 mM) when the concentration of inhibitor was varied from 0 to 50 µM. In parallel, in the inhibition experiment in which the shikimate concentration was fixed at 1.6 mM, ATP was a varied substrate (0.06, 0.12, 0.24, 0.48, and 0.96 mM) when the concentration of inhibitor was varied from 0 to 50 µM. A nonlinear least square-fitting algorithm was applied to the absorbance data to determine the kinetic mechanism data.

[4] = target: T2, M. tuberculosis shikimate kinase (MtSK); assay: Analysis of inhibitor kinetics / inhibitor modality (MtSK); conditions: for Inhibitor modality with respect to ATP / Inhibitor modality with respect to shikimate: MtSK; for Ki: SK species: Mt
Protocol: as §1, §2

[5] = ATP varied, shikimate fixed at 1.6 mM, read-out: αKi, ATP
[6] = shikimate varied, ATP fixed at 2.5 mM, read-out: αKi, SKM

T1 sequence (P56073 whole entry): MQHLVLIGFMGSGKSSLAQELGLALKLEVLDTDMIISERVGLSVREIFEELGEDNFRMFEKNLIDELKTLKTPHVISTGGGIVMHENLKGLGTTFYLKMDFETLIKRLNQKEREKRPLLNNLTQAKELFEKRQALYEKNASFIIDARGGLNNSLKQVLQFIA
T2 sequence (P9WPY3 whole entry): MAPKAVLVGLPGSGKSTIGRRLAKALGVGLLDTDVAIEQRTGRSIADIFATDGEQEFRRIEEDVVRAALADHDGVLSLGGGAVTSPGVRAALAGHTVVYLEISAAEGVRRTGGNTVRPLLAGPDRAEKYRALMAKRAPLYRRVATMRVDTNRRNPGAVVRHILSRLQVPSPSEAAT

In the case of Nc1ccc2c(O)c(/N=N/c3ccc([N+](=O)[O-])cc3)c(S(=O)(=O)O)cc2c1 [NSC45547], the IC50 ([1]; SK species: Hp) is reported as ≤ 10 µM and 7.8 µM.

For O=C(Nc1ccc2c(O)cc(S(=O)(=O)O)cc2c1)Nc1ccc2c(O)cc(S(=O)(=O)O)cc2c1 [NSC45174], the IC50 ([1]; IC50, SK species: Hp) was ≤ 10 µM and 7.8 µM and the IC50 [2] was ≤ 10 µM and 2.8 µM.

N=C(NO)c1ccc(Oc2cc(Cl)cc(Cl)c2)c([N+](=O)[O-])c1 [SPB01099] was tested, and the IC50 ([1]; SK species: Hp) was under 100 µM and the IC50 [2] was under 100 µM.

For O=C1Nc2ccc(I)cc2/C1=C/c1cc(Br)c(O)c(Br)c1 [GW5074, reference compound], the “Inhibitory effect against shikimate kinase (in words)” value (“Inhibitory effect” below) [1] was “showed inhibitory effects”, the IC50 ([1]; IC50, SK species: Hp) was 31.4 µM and the “Inhibitory effect” value [2] was “showed inhibitory effects”. It also gave an IC50 [2] of 29.6 µM.

Compound O=C(NNC(=O)C1c2ccccc2Oc2ccccc21)c1cccc(F)c1 [RH00016] has an IC50 ([1]; IC50, SK species: Hp) of 40.2 µM and an IC50 [2] of under 100 µM.

In the case of O=C(Nc1ccc(C(=O)Nc2ccc3c(O)cc(S(=O)(=O)O)cc3c2)cc1)c1ccccc1 [NSC37215], the “Inhibitory effect” value [1] is reported as “lost the inhibitory”, the IC50 ([1]; IC50, SK species: Hp) is reported as over 100 µM and the “Inhibitory effect” value [2] is reported as “lost the inhibitory”. For the same compound, the IC50 [2] was over 100 µM.

O=C(Nc1ccc2c(O)c(/N=N/c3ccc4c(O)cc(S(=O)(=O)O)cc4c3)c(S(=O)(=O)O)cc2c1)c1ccccc1 [NSC45609] was tested, and the IC50 ([1]; SK species: Hp) was ≤ 10 µM and 7 µM.

O=C(NNC(=O)C1c2ccccc2Oc2ccccc21)c1cccc([N+](=O)[O-])c1 [RH00037] gave an IC50 ([1]; IC50, SK species: Hp) of 23.8 µM and an IC50 [2] of under 100 µM.

In the case of Cc1cc(N=Nc2ccc(N=Nc3ccc(N=Nc4ccc(O)c(C(=O)O)c4)cc3)c(S(=O)(=O)O)c2C)c(N)cc1N [NSC45611], the IC50 ([1]; IC50, SK species: Hp) is reported as ≤ 10 µM and 4.8 µM, the IC50 [2] is reported as ≤ 10 µM and 1.5 µM and the “Inhibitor modality with respect to ATP” value [3] is reported as “competitive inhibitors of ATP”. The “Inhibitor modality with respect to shikimate” value [3] was “competed with shikimate”, the Ki ([3]; αKi, ATP, ATP varied, shikimate fixed at 1.6 mM) was 1.1 µM and the Ki ([3]; αKi, SKM, shikimate varied, ATP fixed at 2.5 mM) was 1.7 µM. The “Inhibitor modality with respect to ATP” value [4] was “competitive inhibitors of ATP”, the “Inhibitor modality with respect to shikimate” value [4] was “competed with shikimate” and the Ki [4, 5] was 0.3 µM. It also gave a Ki [4, 6] of 0.7 µM.

With Nc1ccc2c(O)c(N=Nc3ccc4c(O)cc(S(=O)(=O)O)cc4c3)c(S(=O)(=O)O)cc2c1 [NSC162535] the “Inhibitor modality with respect to ATP” value [3] was “competitive inhibitors of ATP”, the “Inhibitor modality with respect to shikimate” value [3] was “competed with shikimate” and the Ki ([3]; read-out: αKi, ATP, ATP varied, shikimate fixed at 1.6 mM) was 1.9 µM. For the same compound, the Ki ([3]; read-out: αKi, SKM, shikimate varied, ATP fixed at 2.5 mM) was 1.8 µM, the “Inhibitor modality with respect to ATP” value [4] was “competitive inhibitors of ATP” and the “Inhibitor modality with respect to shikimate” value [4] was “competed with shikimate”. For the same compound, the Ki [4, 5] was 0.2 µM and the Ki [4, 6] was 0.6 µM.

With O=S(=O)(O)c1cc(O)c2c(O)c(N=Nc3cccc4ccccc34)c(S(=O)(=O)O)cc2c1 [NSC45208] the “Inhibitory effect” value [1] was “lost the inhibitory”, the IC50 ([1]; IC50, SK species: Hp) was over 100 µM and the “Inhibitory effect” value [2] was “lost the inhibitory”. The IC50 [2] was over 100 µM.
